The values that follow come from patent US9453026B2, “ACC inhibitors and uses thereof” (Gilead Apollo, Inc., priority 2011, dated 2016).

Structures are written as SMILES.

One assay concerns the target ACC2 (Homo sapiens, UniProt O00763). Put plainly: In vitro ACC2 inhibition assay (ADP-Glo). It is filed as biochemical. Particulars: read-out: ACC2. The gist of the method:
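Enzyme (human ACC1 or ACC2) and compound, serially diluted 1:3 over 11 points from a 600 uM DMSO stock, were preincubated 15 min before substrate addition.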

For a further assay, the target named is ACC1 (Homo sapiens, UniProt Q13085). Description: In vitro ACC1 inhibition assay (ADP-Glo). It is filed as biochemical. Conditions: read-out: ACC1. As to the method: An exemplary procedure for the in vitro ACC inhibition assay, which can be used to determine the inhibitory action of compounds of the invention toward either ACC1 or ACC2, follows. The ADP-Glo™ Kinase Assay kit from Promega was used. The ADP-Glo™ Kinase Assay is a luminescent ADP detection assay to measure enzymatic activity by quantifying the amount of ADP produced during an enzyme reaction. The assay is performed in two steps; first, after the enzyme reaction, an equal volume of ADP-Glo™ Reagent is added to terminate the reaction and deplete the remaining ATP. Second, the Kinase Detection Reagent is added to simultaneously convert ADP to ATP and allow the newly synthesized ATP to be measured using a luciferase/luciferin reaction. Luminescence can be correlated to ADP concentrations by using an ATP-to-ADP conversion curve. The detailed procedure is as follows. 50 μL of the compound being tested (600 uM in DMSO) was added to a 384-well dilution plate. The compound was diluted 1:3 in succession in DMSO for each row for 11 wells. 0.5 μL ACC2 working solution was added to 384-well white Optiplate assay plate. 0.5 μL diluted compound solution in each column from step 2 to assay plate, each row containing 2 replicates. […] The plates were incubated at room temperature for 15 minutes. 5 μL substrate working solution was added to each well to initiate reaction. […] Plates were incubated at room temperature for 60 minutes. 10 μL ADP glo reagent was added. Plates were incubated at room temperature for 40 minutes. 20 μL kinase detection reagent was added.
Data for each concentration, as well as the positive and negative controls were averaged, and the standard deviation calculated. Percent inhibition was calculated by the formula: 100× (average negative control−compound)/(average negative control−average positive control). The IC50 for each compound was calculated by fitting the data with a non-linear regression equation: Y=Bottom+(Top-Bottom)/(1+10^((Log IC50−X)*HillSlope)), where X is the log of compound concentration and Y is percent inhibition.
The compound numbers correspond to the compound numbers in Table 1.

ACC2, sequence (O00763 whole entry, species assumed): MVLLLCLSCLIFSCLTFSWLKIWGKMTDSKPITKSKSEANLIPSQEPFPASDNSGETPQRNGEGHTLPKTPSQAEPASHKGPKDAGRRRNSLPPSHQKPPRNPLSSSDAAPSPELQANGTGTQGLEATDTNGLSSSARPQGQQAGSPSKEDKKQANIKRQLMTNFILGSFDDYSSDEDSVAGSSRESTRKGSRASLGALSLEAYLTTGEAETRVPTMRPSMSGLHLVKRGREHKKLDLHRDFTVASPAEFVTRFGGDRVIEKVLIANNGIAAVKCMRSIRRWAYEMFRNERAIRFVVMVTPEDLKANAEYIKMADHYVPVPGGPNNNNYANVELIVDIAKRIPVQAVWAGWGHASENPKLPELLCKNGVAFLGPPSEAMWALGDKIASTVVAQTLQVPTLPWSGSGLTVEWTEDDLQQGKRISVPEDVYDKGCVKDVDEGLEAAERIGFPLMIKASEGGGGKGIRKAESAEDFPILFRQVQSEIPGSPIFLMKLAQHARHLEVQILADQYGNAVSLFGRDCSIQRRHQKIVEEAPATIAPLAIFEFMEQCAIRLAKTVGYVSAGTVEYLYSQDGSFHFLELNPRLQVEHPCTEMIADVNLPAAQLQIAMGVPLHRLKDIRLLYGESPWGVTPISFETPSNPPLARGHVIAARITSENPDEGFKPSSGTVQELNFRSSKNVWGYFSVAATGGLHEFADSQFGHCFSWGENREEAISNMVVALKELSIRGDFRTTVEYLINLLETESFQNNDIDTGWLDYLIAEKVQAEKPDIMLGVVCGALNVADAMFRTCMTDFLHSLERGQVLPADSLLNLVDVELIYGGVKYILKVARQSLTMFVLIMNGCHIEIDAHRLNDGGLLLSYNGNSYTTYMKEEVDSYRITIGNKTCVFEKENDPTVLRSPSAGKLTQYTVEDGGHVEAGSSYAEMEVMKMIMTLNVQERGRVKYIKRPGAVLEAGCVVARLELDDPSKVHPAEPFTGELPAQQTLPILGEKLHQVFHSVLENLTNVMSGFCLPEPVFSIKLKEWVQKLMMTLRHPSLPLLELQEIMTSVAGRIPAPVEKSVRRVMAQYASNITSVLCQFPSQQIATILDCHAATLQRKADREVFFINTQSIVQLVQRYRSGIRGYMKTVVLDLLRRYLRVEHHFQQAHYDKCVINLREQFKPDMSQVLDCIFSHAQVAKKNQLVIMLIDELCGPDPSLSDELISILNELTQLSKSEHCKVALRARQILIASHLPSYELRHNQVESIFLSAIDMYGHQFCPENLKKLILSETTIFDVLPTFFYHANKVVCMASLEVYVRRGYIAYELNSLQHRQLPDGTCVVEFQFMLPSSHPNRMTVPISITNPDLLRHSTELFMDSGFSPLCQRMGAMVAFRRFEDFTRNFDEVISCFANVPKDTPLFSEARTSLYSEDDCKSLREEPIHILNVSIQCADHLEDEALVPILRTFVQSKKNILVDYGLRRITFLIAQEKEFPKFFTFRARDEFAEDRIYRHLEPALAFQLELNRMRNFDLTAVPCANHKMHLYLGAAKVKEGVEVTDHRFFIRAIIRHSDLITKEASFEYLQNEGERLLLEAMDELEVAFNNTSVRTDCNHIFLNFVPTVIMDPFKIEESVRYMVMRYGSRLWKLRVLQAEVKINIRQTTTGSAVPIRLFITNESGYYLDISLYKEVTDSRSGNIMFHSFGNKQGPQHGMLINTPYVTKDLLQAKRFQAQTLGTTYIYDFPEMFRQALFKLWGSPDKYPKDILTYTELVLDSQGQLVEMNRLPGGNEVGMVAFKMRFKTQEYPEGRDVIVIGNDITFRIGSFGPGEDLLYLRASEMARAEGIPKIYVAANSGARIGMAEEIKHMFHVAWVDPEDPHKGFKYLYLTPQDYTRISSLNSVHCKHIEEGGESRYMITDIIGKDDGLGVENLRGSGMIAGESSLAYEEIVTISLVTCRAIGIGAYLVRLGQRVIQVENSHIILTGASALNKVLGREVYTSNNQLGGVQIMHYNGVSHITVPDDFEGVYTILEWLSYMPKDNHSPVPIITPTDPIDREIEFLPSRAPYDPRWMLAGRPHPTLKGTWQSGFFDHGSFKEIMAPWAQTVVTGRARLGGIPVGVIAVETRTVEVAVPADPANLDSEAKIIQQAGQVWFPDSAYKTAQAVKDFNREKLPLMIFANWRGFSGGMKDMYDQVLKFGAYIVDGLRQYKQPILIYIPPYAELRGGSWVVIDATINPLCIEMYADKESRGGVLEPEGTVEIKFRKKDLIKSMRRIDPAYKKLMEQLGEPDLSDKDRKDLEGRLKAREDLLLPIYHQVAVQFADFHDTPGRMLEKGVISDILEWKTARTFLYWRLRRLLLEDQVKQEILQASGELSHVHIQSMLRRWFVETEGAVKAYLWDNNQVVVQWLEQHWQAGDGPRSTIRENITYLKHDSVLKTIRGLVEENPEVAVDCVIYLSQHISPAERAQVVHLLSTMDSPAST

On to `CCOC(=O)c1sc2c(c1C)c(=O)n(CC(=O)O)c(=O)n2CC(OC(C)C)c1ccccc1` (stereo not drawn) [I-89, 2-[6-(ethoxycarbonyl)-5-methyl-2,4-dioxo-1-[2-phenyl-2-(propan-2-yloxy)ethyl]-1H,2H,3H,4H-thieno[2,3-d]pyrimidin-3-yl]acetic acid], for which the IC50 at ACC2 and at ACC1 was less than 1000 nM each time.

On to `CCOC(=O)c1sc2c(c1C)c(=O)n(C(C)(C)C(=O)O)c(=O)n2CCc1ccccc1OC` [I-93, 2-[6-(ethoxycarbonyl)-1-[2-(2-methoxyphenyl)ethyl]-5-methyl-2,4-dioxo-1H,2H,3H,4H-thieno[2,3-d]pyrimidin-3-yl]-2-methylpropanoic acid], for which the IC50 at ACC2 and on ACC1 was less than 1000 nM each time.

As for `CCOC(=O)c1sc2c(c1C)c(=O)n(C(C)(C)C(=O)O)c(=O)n2CCc1ccccc1CC` [I-100, 2-[6-(ethoxycarbonyl)-1-[2-(2-ethylphenyl)ethyl]-5-methyl-2,4-dioxo-1H,2H,3H,4H-thieno[2,3-d]pyrimidin-3-yl]-2-methylpropanoic acid], the results for the IC50 on ACC2 and on ACC1 were less than 1000 nM and less than 100 nM, respectively.

`CCOC(=O)c1sc2c(c1C)c(=O)n(C(C)(C)C(=O)O)c(=O)n2C[C@H](OC(C)C)c1ccccc1` [I-108, 2-[6-(ethoxycarbonyl)-5-methyl-2,4-dioxo-1-[(2R)-2-phenyl-2-(propan-2-yloxy)ethyl]-1H,2H,3H,4H-thieno[2,3-d]pyrimidin-3-yl]-2-methylpropanoic acid]: the IC50 on ACC2 is less than 1000 nM; on ACC1, less than 100 nM.

As to `CCOC(=O)c1sc2c(c1C)c(=O)n(C(C)(C)C(=O)O)c(=O)n2C[C@H](OC)c1ccccc1` [I-110, 2-[6-(ethoxycarbonyl)-1-[(2R)-2-methoxy-2-phenylethyl]-5-methyl-2,4-dioxo-1H,2H,3H,4H-thieno[2,3-d]pyrimidin-3-yl]-2-methylpropanoic acid], the IC50 at ACC2 and on ACC1 was less than 1000 nM each time.

Consider `CCOC(=O)c1sc2c(c1C)c(=O)n(CC(N)=O)c(=O)n2C[C@H](OC(C)C)c1ccccc1` [I-112, ethyl 3-(carbamoylmethyl)-5-methyl-2,4-dioxo-1-[(2R)-2-phenyl-2-(propan-2-yloxy)ethyl]-1H,2H,3H,4H-thieno[2,3-d]pyrimidine-6-carboxylate], for which the IC50 is less than 1000 nM at ACC2 and less than 100 nM on ACC1.

On to `CCOC(=O)c1sc2c(c1C)c(=O)n(C(C)(C)C(N)=O)c(=O)n2C[C@H](OC(C)C)c1ccccc1` [I-115, ethyl 3-(1-carbamoyl-1-methylethyl)-5-methyl-2,4-dioxo-1-[(2R)-2-phenyl-2-(propan-2-yloxy)ethyl]-1H,2H,3H,4H-thieno[2,3-d]pyrimidine-6-carboxylate], for which the IC50 on ACC2 and at ACC1 was less than 1000 nM throughout.

Take `Cc1c(-c2ncco2)sc2c1c(=O)n(C(C)(C)C(=O)O)c(=O)n2C[C@H](OC(C)C)c1ccccc1` [I-119, 2-methyl-2-[5-methyl-6-(1,3-oxazol-2-yl)-2,4-doxo-1-[(2R)-2-phenyl-2-(propan-2-yloxy)ethyl]-1H,2H,3H,4H-thieno[2,3-d]pyrimidin-3-yl]propanoic acid]: the IC50 is less than 1000 nM at ACC2 and less than 100 nM at ACC1.

On to `Cc1c(-c2ncco2)sc2c1c(=O)n(C(C)(C)C(N)=O)c(=O)n2C[C@H](OC(C)C)c1ccccc1` [I-121, 2-methyl-2-[5-methyl-6-(1,3-oxazol-2-yl)-2,4-dioxo-1-[(2R)-2-phenyl-2-(propan-2-yloxy)ethyl]-1H,2H,3H,4H-thieno[2,3-d]pyrimidin-3-yl]propanamide], for which the IC50 on ACC2 and on ACC1 was less than 1000 nM throughout.

Regarding `CCOC(=O)c1sc2c(c1C)c(=O)n(C(C)(C)C(=O)O)c(=O)n2C[C@H](OCC(C)C)c1ccccc1` [I-123, 2-[6-(ethoxycarbonyl)-5-methyl-1-[(2R)-2-(2-methylpropoxy)-2-phenylethyl]-2,4-dioxo-1H,2H,3H,4H-thieno[2,3-d]pyrimidin-3-yl]-2-methylpropanoic acid], the IC50 on ACC2 was less than 1000 nM; at ACC1 it was less than 100 nM.

`CCOC(=O)c1sc2c(c1C)c(=O)n(C(C)(C)C(=O)O)c(=O)n2C[C@H](O[C@H](C)CC)c1ccccc1` [I-130, 2-[1-[(2R)-2-[(2R)-butan-2-yloxy]-2-phenylethyl]-6-(ethoxycarbonyl)-5-methyl-2,4-dioxo-1H,2H,3H,4H-thieno[2,3-d]pyrimidin-3-yl]-2-methylpropanoic acid]: the IC50 on ACC2 is less than 1000 nM; on ACC1, less than 100 nM.

For `CCc1ccccc1CCn1c(=O)n(C(C)(C)C(=O)O)c(=O)c2c(C)c(-c3ncco3)sc21` [I-133, 2-[1-[2-(2-ethylphenyl)ethyl]-5-methyl-6-(1,3-oxazol-2-yl)-2,4-dioxo-1H,2H,3H,4H-thieno[2,3-d]pyrimidin-3-yl]-2-methylpropanoic acid], the IC50 on ACC2 was less than 1000 nM; at ACC1, less than 100 nM.

On to `CCc1ccccc1CCn1c(=O)n(C(C)(C)C(N)=O)c(=O)c2c(C)c(-c3ncco3)sc21` [I-134, 2-[1-[2-(2-ethylphenyl)ethyl]-5-methyl-6-(1,3-oxazol-2-yl)-2,4-dioxo-1H,2H,3H,4H-thieno[2,3-d]pyrimidin-3-yl]-2-methylpropanamide], for which the IC50 on ACC2 and on ACC1 was less than 1000 nM each time.

For the compound `CCOc1ccccc1CCn1c(=O)n(C(C)(C)C(=O)O)c(=O)c2c(C)c(-c3ncco3)sc21` [I-135, 2-[1-[2-(2-ethoxyphenyl)ethyl]-5-methyl-6-(1,3-oxazol-2-yl)-2,4-dioxo-1H,2H,3H,4H-thieno[2,3-d]pyrimidin-3-yl]-2-methylpropanoic acid], the IC50 is less than 1000 nM on ACC2 and less than 100 nM on ACC1.

With `CCOc1ccccc1CCn1c(=O)n(C(C)(C)C(N)=O)c(=O)c2c(C)c(-c3ncco3)sc21` [I-139, 2-[1-[2-(2-ethoxyphenyl)ethyl]-5-methyl-6-(1,3-oxazol-2-yl)-2,4-dioxo-1H,2H,3H,4H-thieno[2,3-d]pyrimidin-3-yl]-2-methylpropanamide], the IC50 on ACC2 and on ACC1 was less than 1000 nM throughout.

As to `Cc1c(-c2ncco2)sc2c1c(=O)n(C(C)(C)C(=O)O)c(=O)n2C[C@H](OC1CCCCC1)c1ccccc1` [I-140, 2-[1-[(2R)-2-(cyclohexyloxy)-2-phenylethyl]-5-methyl-6-(1,3-oxazol-2-yl)-2,4-dioxo-1H,2H,3H,4H-thieno[2,3-d]pyrimidin-3-yl]-2-methylpropanoic acid], the IC50 was less than 1000 nM at ACC2 and less than 100 nM at ACC1.

Consider `Cc1c(-c2ncco2)sc2c1c(=O)n(C(C)(C)C(=O)O)c(=O)n2C[C@H](OC1CCC(=O)CC1)c1ccccc1` [I-145, (R)-2-methyl-2-(5-methyl-6-(oxazol-2-yl)-2,4-dioxo-1-(2-((4-oxocyclohexyl)oxy)-2-phenylethyl)-1,2-dihydrothieno[2,3-d]pyrimidin-3(4H)-yl)propanoic acid], for which the IC50 on ACC2 is less than 1000 nM; on ACC1, less than 100 nM.

With `CCCc1ccccc1CCn1c(=O)n(C(C)(C)C(=O)O)c(=O)c2c(C)c(-c3ncco3)sc21` [I-147, 2-methyl-2-[5-methyl-6-(1,3-oxazol-2-yl)-2,4-dioxo-1-[2-(2-propylphenyl)ethyl]-1H,2H,3H,4H-thieno[2,3-d]pyrimidin-3-yl]propanoic acid], the IC50 on ACC2 and at ACC1 was less than 1000 nM throughout.

In the case of `Cc1c(-c2ncco2)sc2c1c(=O)n(C(C)(C)C(=O)O)c(=O)n2C[C@H](O[C@H]1CC[C@](C)(O)CC1)c1ccccc1` [I-163, 2-(1-((R)-2-(((1r,4R)-4-hydroxy-4-methylcyclohexyl)oxy)-2-phenylethyl)-5-methyl-6-(oxazol-2-yl)-2,4-dioxo-1,2-dihydrothieno[2,3-d]pyrimidin-3(4H)-yl)-2-methylpropanoic acid], the IC50 on ACC2 and at ACC1 was less than 1000 nM in each case.

Turning to `Cc1c(-c2ncco2)sc2c1c(=O)n(C(C)(C)C(=O)O)c(=O)n2C[C@H](OC1CCC(O)CC1)c1ccccc1` (stereo partly drawn) [I-164, 2-[1-[(2R)-2-[(4-hydroxycyclohexyl)oxy]-2-phenylethyl]-5-methyl-6-(1,3-oxazol-2-yl)-2,4-dioxo-1H,2H,3H,4H-thieno[2,3-d]pyrimidin-3-yl]-2-methylpropanoic acid], the IC50 on ACC2 and at ACC1 was less than 100 nM each time.

For `CCOc1ccccc1[C@H](Cn1c(=O)n(C(C)(C)C(=O)O)c(=O)c2c(C)c(-c3ncco3)sc21)OC(C)C` [I-177, 2-[1-[(2R)-2-(2-ethoxyphenyl)-2-(propan-2-yloxy)ethyl]-5-methyl-6-(1,3-oxazol-2-yl)-2,4-dioxo-1H,2H,3H,4H-thieno[2,3-d]pyrimidin-3-yl]-2-methylpropanoic acid], the IC50 on ACC2 and at ACC1 was less than 100 nM in each case.
